Experimental data as given in patent US10905148B2, “Systems and methods for monitoring of blood lactate and targeting of blood lactate via nutritional support” (Run Them Sweet LLC, priority 2012, dated 2021).

Experiments:
[1] = system: lipases and esterases in human plasma; conditions: cited from earlier work
[2] = cited from earlier work
[3] = Osmolality of infusion solutions; format: physicochemical
Description: In its simplest form, the MCC cocktail would be sodium-L-(+)-Lactate prepared by titrating L-(+)-Lactic acid with NaOH. The following describe such procedures: (24, 52, 55-57). Briefly, the MCC infusion cocktail is prepared by mixing concentrated (30-88%) L-(+)-lactic acid solution (e.g., Sigma-Aldrich or PCCA) in 2 N NaOH to pH 4.8. In the example provided, the starting point is a 30% stock lactic acid solution: 300 g 30% lactic acid stock solution is titrated with 133.3 g 2N NaOH and diluted to 1,000 ml with water. This will produce a 11.2% weight-by-volume (“w/v”) MCC cocktail (sodium-L-(+)-Lactate) with an osmolality approximating 2,000 mOsm/l. Depending on the stock lactic acid solution used, a NaOH titrating solution>2 N may be necessary to neutralize stock lactic acid without exceeding the intended volume. Regardless of the specifics of acid titration, a 1.72% Na^+-lactate aqueous solution is isosmotic (308 mOsm/l); consequently, as initially mixed the above described MCC is far too concentrated to be given in a peripheral vein and will need to be diluted to less than 1,000 mOsm/l (a 5.6% Na^+-lactate solution). In a peripheral arm vein and a 5.0-5.6% Na^+-lactate MCC should be given with normal (0.9%, 308 mOsm/l) saline or another isosmotic solution such as […] (dextrose) in water, commonly called D5W (see more below).
In another version of the simplest form, the MCC cocktail would be sodium-L-(+)-Lactate prepared from the dry, powdered salt in deionized water to the concentration intended [e.g., for an isosmotic solution: 154 mM lactate (plus 154 mM Na^+) total osmolarity 308 mOsm/l], and infused in the above-stated amounts to raise arterial [lactate] to the intended levels.
State of the art is to provide parenteral nutritive support to patients using 5% dextrose (D5W, glucose in water, vide supra). Because glucose (dextrose) has a molecular weight of 180, osmolality of D5W is 278 mM, which in the low range of normal plasma osmolality ([…]). Even though the glucose concentration in D5W is 50 times greater than homeostatic in plasma, in terms of its isosmotic effect with glucose alone being the only solute, D5W is isosmotic. Mixing equal isosmotic solutions such as equal volumes of 154 mM Sanguisal-L and D5W glucose will produce an osmolality in the high end of the normal range. As noted earlier, this slightly elevated osmolality because of sodium content will draw fluid from tissues into the vascular compartment, thus mitigating swelling due to injury (15).

[4] = infusions of 2N Na+-Pyruvate into swine; cited from earlier work
[5] = system: lactate dehydrogenase in red blood cells and the lung parenchyma; conditions: due to lactate dehydrogenase in red blood cells and lung parenchyma; cited from earlier work
[6] = aqueous conditions; cited from earlier work
[7] = lactate clamp procedure, exogenous lactate

Arginyl lactate
dissociation of individual units at neutral pH ([1]; neutral pH as exists in human plasma): dissociate spontaneously

C[C@H](O)C(=O)[O-].[Na+] [sodium-L-(+)-Lactate]
higher blood lactate levels seen/used without ill effects ([2]; sodium lactate MCC infusion): 6 mM | total osmolarity ([3]; 154 mM lactate plus 154 mM Na+, isosmotic solution): 308 mOsm/l | osmolality ([3]; 1.72% aqueous solution, isosmotic): 308 mOsm/l | osmolality ([3]; 5.6% solution): 1,000 mOsm/l | osmolality ([3]; 11.2% w/v MCC cocktail): ~2,000 mOsm/l

CC(=O)C(=O)[O-].[Na+] [Na^+-Pyruvate, sodium-L-(+)-Pyruvate]
arterial [lactate] [4]: 8 mM | arterial [pyruvate] [4]: 3.5 mM

CC(O)C(=O)OCC(COC(=O)C(C)O)OC(=O)C(C)O (stereo not drawn) [Glycerol tri-lactate, glycerol tri-lactate]
dissociation of individual units in human plasma ([1]; lipases and esterases in human plasma): rapidly dissociate

CC(=O)C(=O)O [pyruvate]
conversion in circulation/blood [5]: rapidly converted to lactate | stability in aqueous solutions [6]: spontaneous degradation

CC(O)C(=O)O (stereo not drawn) [lactate, 2-hydroxy-propionate]
safety of route and amount of vascular lactate administration ([2]; approximately 3 mg/kg/min, vascular): safe | blood pH [2, 7]: raises pH | effects on plasma electrolytes [2, 7]: without major effects | side effects ([2]; oral or intravenous administration): no apparent side effects except mild alkalosis
